In US8580769B2, “Treatment of obesity, metabolic syndrome, and diabetes with protein kinase C inhibitors” (The United States of America as represented by the …, priority 2011, dated 2013):

Tests used:
aPKC = experiment: tissue aPKC activity in Het-MλKO mice; assay type: in vivo, mouse; conditions: for aPKC activation in adipose tissue / aPKC activation in muscle: 7-day treatment s.c. (ATM 60 mg/kg; ICAPP 0.4 mg/kg)
From the text: (§1) In Vivo Mouse Studies: Male wild type (WT) and heterozygous muscle-specific PKC-λ knockout (Het-MλKO) mice were generated as described (Farese et al., J. Clin. Invest. 117:2289-2301, 2007) and used at 6-12 months of age, when the O/MS/T2DM phenotype in MλKO mice is well-developed. Mice were housed in a temperature-controlled environment with alternating 12-hour light and dark cycles, and fed ad libitum with standard chow (Harlan Teklad 20/18 with 5% fat, (10% of calories from fat)). All experimental procedures in mice were approved by the Institutional Animal Care and Use Committees of the Roskamp Institute and the University of South Florida College of Medicine, and the James A. Haley Veterans Administration Medical Center Research and Development Committee, Tampa, Fla.
(§2) (ICAPP; prepared by Southern Research, Birmingham, Ala.) at 0.4 mg/kg body weight. On the morning of the eighth day of inhibitor treatment, mice were injected intraperitoneally (IP) with 0.9% saline or saline containing 1 U insulin/kg body weight 15 minutes before sacrifice, an optimal time for studies of insulin stimulation of aPKC and Akt in liver, muscle and adipose tissues (Standaert et al., J. Biol. Chem. 279:24929-24934, 2004; Sajan et al., J. Lipid Res. 50:1133-1145, 2009; Sajan et al., Diabetologia 52:1197-1207, 2009; Farese et al., J. Clin. Invest. 117:2289-2301, 2007). After killing, blood, liver, quadriceps muscle and abdominal adipose tissues were rapidly removed and homogenized in buffer with a POLYTRON® homogenizer.
(§3) Tissue and Immunoprecipitate Preparations: As previously described (Standaert et al., J. Biol. Chem. 279:24929-24934, 2004; Sajan et al., J. Lipid Res. 50:1133-1145, 2009; Sajan et al., Diabetologia 52:1197-1207, 2009; Farese et al., J. Clin. Invest. 117:2289-2301, 2007) hepatocytes and tissues from in vivo experiments were homogenized in ice-cold buffer containing 0.25 M sucrose, 20 mM Tris/HCl (pH 7.5), 2 mM EGTA, 2 mM EDTA, 1 mM phenylmethylsulfonyl fluoride (PMSF), 20 μg/ml leupeptin, 10 μg/ml aprotinin, 2 mM Na4P2O7, 2 mM Na3VO4, 2 mM NaF, and 1 μM microcystin. After centrifugation for 10 minutes at 700×g to remove unbroken cells, debris, nuclei, and floating fat, cell lysates were stored at −70° C. After addition of 1% TRITON® X-100, 0.6% Nonidet and 150 mM NaCl, lysates were cleared of insoluble materials by low-speed centrifugation and subsequently immunoprecipitated with antibodies that target: (a) aPKCs (rabbit polyclonal antiserum from Santa Cruz Biotechnologies (Santa Cruz, Calif.) that recognizes C-termini of both PKC-λ and PKC-ζ); and (b) Akt2 (Upstate Cell Signaling/Millipore, Billerica, Mass.). Immunoprecipitates were collected on Sepharose-AG beads (Santa Cruz Biotechnologies).
aPKCι Assays: aPKC enzyme activity was measured as previously described (Standaert et al., J. Biol. Chem. 279:24929-24934, 2004; Sajan et al., J. Lipid Res. 50:1133-1145, 2009; Sajan et al., Diabetologia 52:1197-1207, 2009; Farese et al., J. Clin. Invest. 117:2289-2301, 2007). […] After incubation, ^32P-labeled substrate was trapped on P-81 filter paper and counted. This assay reflects the specific activity of a constant amount of aPKC (even in Het-MλKO mice) that is immunoprecipitated by supplier-prescribed amounts of antiserum (Farese et al., J. Clin. Invest. 117:2289-2301, 2007; Beeson et al., Diabetes 52:1926-1934, 2003).

Akt2 = target: T1, Akt2 (Mus musculus, UniProt Q60823); experiment: tissue Akt activity in Het-MλKO mice; assay type: in vivo; conditions: for Akt activation in adipose tissue / Akt activation in muscle: 7-day treatment s.c. (ATM 60 mg/kg; ICAPP 0.4 mg/kg)
T1 construct: from tissue; host or cells: mouse liver, quadriceps muscle and abdominal adipose tissue
T1 sequence (Q60823 whole entry): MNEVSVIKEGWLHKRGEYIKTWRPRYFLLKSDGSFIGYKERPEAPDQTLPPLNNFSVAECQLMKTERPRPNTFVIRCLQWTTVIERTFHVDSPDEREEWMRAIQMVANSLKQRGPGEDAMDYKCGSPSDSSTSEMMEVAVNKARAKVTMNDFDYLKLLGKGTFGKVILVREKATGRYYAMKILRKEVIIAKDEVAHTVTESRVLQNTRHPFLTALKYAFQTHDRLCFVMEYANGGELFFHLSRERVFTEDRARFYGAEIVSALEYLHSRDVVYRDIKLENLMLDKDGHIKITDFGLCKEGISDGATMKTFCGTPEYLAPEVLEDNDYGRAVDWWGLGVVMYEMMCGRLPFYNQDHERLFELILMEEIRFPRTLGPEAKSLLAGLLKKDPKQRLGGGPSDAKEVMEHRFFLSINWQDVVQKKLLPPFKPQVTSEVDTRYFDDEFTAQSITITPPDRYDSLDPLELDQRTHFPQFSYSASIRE
From the text: as §1, §2, §3
Akt2 Assay: Akt2 enzyme activity was measured with a kit obtained from Upstate Cell Signaling, as described (Standaert et al., J. Biol. Chem. 279:24929-24934, 2004; Sajan et al., J. Lipid Res. 50:1133-1145, 2009; Sajan et al., Diabetologia 52:1197-1207, 2009; Farese et al., J. Clin. Invest. 117:2289-2301, 2007). In brief, Akt2 was immunoprecipitated from lysates with rabbit polyclonal antibodies, collected on Sepharose-AG beads, and incubated as per kit directions. Akt1/2 activation was also assessed by immunoblotting for phosphorylation of serine-473.

[1] = Het-MλKO mice, s.c. once daily (ICAPP 0.4 mg/kg 7 days; ICAP 0.5 mg/kg 8 days)
[2] = ICAP-treated Mλ-Het KO mice (n = 12), 0.5 mg/kg body weight/day x 8 days s.c., mean ± SEM

SMILES	hepatic aPKC activity (aPKC; [1])	hepatic aPKC activity (aPKC; [2])	Hepatic Akt activity (Akt2; [2])	aPKC activation in adipose tissue (aPKC; Het-MλKO mice)	aPKC activation in muscle (aPKC; Het-MλKO mice)	Akt activation in adipose tissue (Akt2; Het-MλKO mice)	Akt activation in muscle (Akt2; Het-MλKO mice)	Akt activation/activity in liver (Akt2; Het-MλKO mice, s.c. once daily (ATM 60 mg/kg; ICAPP 0.4 mg/kg; ICAP 0.5 mg/kg))
NC(=O)c1ncn([C@@H]2C[C@H](CO)[C@@H](O)[C@H]2O)c1N [ICAP, 1H-imidazole-4-carboxamide 5-amino-1-[2,3-dihydroxy-4-[hydroxymethyl]cyclopentyl]-[1R-(1α,2β,3β,4α)]]	inhibited	1374 ± 128 cpm/immunoppt	1151 ± 226 cpm/immunoppt					
NC(=O)c1ncn([C@@H]2C[C@H](COP(=O)(O)O)[C@@H](O)[C@H]2O)c1N [ICAPP, 1H-imidazole-4-carboxamide, 5-amino-1-[2,3-dihydroxy-4-[(phosphonooxy)methyl]cyclopentyl]-[1R-(1α,2β,3β,4α)]]	diminished			increased significantly or trended upward	increased significantly or trended upward	increased significantly or trended upward	increased significantly or trended upward	
O=C([O-])CC([S][Au])C(=O)[O-] (stereo not shown) [ATM, aurothiomalate, reference compound]				increased significantly	increased significantly	increased or trended upward	increased or trended upward	increased or trended upward
